Laboratory results: patent US7893288B2, “Poly-halogenated triazapentadiene compositions” (Board of Regents, The University of Texas System, priority 2007, dated 2011)
In brackets after ≈: the same amount, converted by molar mass. Several values for one entry are separate records, joined by “and”; a condition that tells them apart may be missing. Identical values can stand only once.

Legend:
Assay type in all cases: cell-based
[1] = test system: Staphylococcus aureus (ATCC 25923); assay: Disk sensitivity test (modified Kirby-Bauer), S. aureus;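 also: Compound-loaded filter disks on LB agar plates seeded with a confluent bacterial lawn, compound dissolved in DMSO, plates kept overnight at 37 °C, then inhibition zone around disk measured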
Description: (§1) Filter disks were provided as sterile filter paper (about 6 mm in diameter) and spotted with 20 μL of a selected compound. Each compound was initially dissolved in dimethylsulfoxide (DMSO); any subsequent dilutions were also made in DMSO. Each filter was placed on an LB agar plate spread with 100 μL of a bacterial culture that had been grown overnight in suitable LB broth. Plates were incubated overnight at 37° C., after which, the extent of growth inhibition around each filter disk was measured. Bacterial strains included Staphylococcus aureus (ATCC 25923), Pseudomonas aeruginosa PAO1, Bacillus subtilis W168 and Escherichia coli HB101. […] The latter two strains are non-pathogenic Gram-positive and Gram-negative bacterial strains, respectively.

[2] = test system: Bacillus subtilis W168; assay: Disk sensitivity test (modified Kirby-Bauer), B. subtilis;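 also: Compound-loaded filter disks on LB agar plates seeded with a bacterial lawn, plates held overnight at 37 °C, then the clear zone around each disk measured, compounds in DMSO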
Description: as §1

[3] = test system: Pseudomonas aeruginosa PAO1; assay: Disk sensitivity test (modified Kirby-Bauer), P. aeruginosa;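 also: Compound-loaded filter disks on LB agar lawns, DMSO as solvent, zone of inhibition around each disk read after overnight incubation at 37 °C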
Description: as §1

[4] = test system: Escherichia coli HB101; assay: Disk sensitivity test (modified Kirby-Bauer), E. coli;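 also: filter disk loaded with compound in DMSO laid on an LB agar bacterial lawn, kept overnight at 37 °C, then the inhibition zone around the disk is measured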
Description: as §1

[5] = test system: Staphylococcus aureus (ATCC 25923); assay: Minimum inhibitory concentration in LB broth, S. aureus
[6] = test system: Bacillus subtilis W168; assay: Minimum inhibitory concentration in LB broth, B. subtilis
Description: (§2) For MIC assessment, compounds were initially dissolved in DMSO and serial dilutions of soluble compounds were made in LB broth.

[7] = test system: Pseudomonas aeruginosa PAO1; assay: Minimum inhibitory concentration in LB broth, P. aeruginosa
Description: as §2

[8] = test system: Escherichia coli HB101; assay: Minimum inhibitory concentration in LB broth, E. coli;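 also: broth dilution MIC, test compounds first taken up in DMSO, then serially diluted in LB medium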
Description: as §2

[9] = test system: Gram-positive bacteria (e.g., S. aureus and B. subtilis); assay: Growth inhibition of Gram-positive bacteria, summary of TABLES 6-19
Description: The new class of fluorinated triazapentadiene compounds with and without metal complexation as described herein were analyzed for antibacterial activity against several bacterial strains (both Gram positive and Gram negative). Methods for antimicrobial analysis included a modified Kirby-Bauer method and a determination of their minimum inhibitory concentrations. In brief, the modified Kirby-Bauer method relied on placement of a filter disk impregnated with a desired compound on a solid growth medium. Bacteria were grown to a confluent lawn and the extent of growth inhibition was measured (e.g., as an extent/percentage of a clear zone on the disk and/or solid medium).
Filter disks were provided as sterile filter paper (about 6 mm in diameter) and spotted with 20 μL of a selected compound. Each compound was initially dissolved in dimethylsulfoxide (DMSO); any subsequent dilutions were also made in DMSO. Each filter was placed on an LB agar plate spread with 100 μL of a bacterial culture that had been grown overnight in suitable LB broth. Plates were incubated overnight at 37° C., after which, the extent of growth inhibition around each filter disk was measured. Bacterial strains included Staphylococcus aureus (ATCC 25923), Pseudomonas aeruginosa PAO1, Bacillus subtilis W168 and Escherichia coli HB101. […]

[10] = efficacy per mole from MIC values

Structure (SMILES): Cc1cc(C)c(N=C(N=C(Nc2c(C)cc(C)cc2C)C(F)(F)C(F)(F)C(F)(F)F)C(F)(F)C(F)(F)C(F)(F)F)c(C)c1 [[N{(C3F7)C(Mes)N}2]H]
- Diameter of the zone of growth inhibition ([1]; 5.7 × 10^0 mM): 7.5 mm
- Diameter of the zone of growth inhibition ([1]; 5.7 × 10^1 mM): 9.5 mm
- Diameter of the zone of growth inhibition ([1]; 5.7 × 10^−1 mM): 6.0 (NZ) mm
- Diameter of the zone of growth inhibition ([1]; 5.7 × 10^−2 mM): 6.0 (NZ) mm
- Diameter of the zone of growth inhibition ([1]; 5.7 × 10^−3 mM): 6.0 (NZ) mm
- Diameter of the zone of growth inhibition ([2]; 5.7 × 10^0 mM): 8.0 mm
- Diameter of the zone of growth inhibition ([2]; 5.7 × 10^1 mM): 9.0 mm
- Diameter of the zone of growth inhibition ([2]; 5.7 × 10^−1 mM): 6.0 (NZ) mm
- Diameter of the zone of growth inhibition ([2]; 5.7 × 10^−2 mM): 6.0 (NZ) mm
- Diameter of the zone of growth inhibition ([2]; 5.7 × 10^−3 mM): 6.0 (NZ) mm
- Diameter of the zone of growth inhibition ([3]; 5.7 × 10^0 mM): 8.5 mm
- Diameter of the zone of growth inhibition ([3]; 5.7 × 10^1 mM): 9.0 mm
- Diameter of the zone of growth inhibition ([3]; 5.7 × 10^−1 mM): 7.5 mm
- Diameter of the zone of growth inhibition ([3]; 5.7 × 10^−2 mM): 7.5 mm
- Diameter of the zone of growth inhibition ([3]; 5.7 × 10^−3 mM): 7.0 mm
- Diameter of the zone of growth inhibition ([4]; 5.7 × 10^0 mM): 8.0 mm
- Diameter of the zone of growth inhibition ([4]; 5.7 × 10^1 mM): 10.0 mm
- Diameter of the zone of growth inhibition ([4]; 5.7 × 10^−1 mM): 7.5 mm
- Diameter of the zone of growth inhibition ([4]; 5.7 × 10^−2 mM): 7.0 mm
- Diameter of the zone of growth inhibition ([4]; 5.7 × 10^−3 mM): 7.0 mm
- MIC [5]: 2252.38 μg/ml and 3.50 mM
- Relative to AgNO3 [5, 10]: 2.10 × 10^−2
- MIC [6]: 2690 µM (≈ 1730 µg/mL)
- Relative to AgNO3 [6, 10]: 5.46 × 10^−2
- MIC [7]: 1402.43 μg/ml and 2.18 mM
- Relative to AgNO3 [7, 10]: 8.44 × 10^−3
- MIC [8]: 1126.88 μg/ml and 1.75 mM
- Relative to AgNO3 [8, 10]: 3.37 × 10^−2
- antibacterial activity against Gram-positive organisms (in words) [9]: less effective
